Assay results: publication PMC11696576, “Next generation thiazolyl ketone inhibitors of cytosolic phospholipase A2 α for targeted cancer therapy” (Nature Communications, 2025)
“And” between values parts separate entries of the source, which are not always exact repeats. Equal entries are not always repeated. Where two headings read alike, the source gives them in different places.

Tests used:
[1] = target: T1, human calcium-independent GVIA iPLA2 (Homo sapiens, UniProt O60733); assay: radioactivity-based mixed micelle assay, GVIA iPLA2; format: biochemical
T1 sequence (O60733 1-806): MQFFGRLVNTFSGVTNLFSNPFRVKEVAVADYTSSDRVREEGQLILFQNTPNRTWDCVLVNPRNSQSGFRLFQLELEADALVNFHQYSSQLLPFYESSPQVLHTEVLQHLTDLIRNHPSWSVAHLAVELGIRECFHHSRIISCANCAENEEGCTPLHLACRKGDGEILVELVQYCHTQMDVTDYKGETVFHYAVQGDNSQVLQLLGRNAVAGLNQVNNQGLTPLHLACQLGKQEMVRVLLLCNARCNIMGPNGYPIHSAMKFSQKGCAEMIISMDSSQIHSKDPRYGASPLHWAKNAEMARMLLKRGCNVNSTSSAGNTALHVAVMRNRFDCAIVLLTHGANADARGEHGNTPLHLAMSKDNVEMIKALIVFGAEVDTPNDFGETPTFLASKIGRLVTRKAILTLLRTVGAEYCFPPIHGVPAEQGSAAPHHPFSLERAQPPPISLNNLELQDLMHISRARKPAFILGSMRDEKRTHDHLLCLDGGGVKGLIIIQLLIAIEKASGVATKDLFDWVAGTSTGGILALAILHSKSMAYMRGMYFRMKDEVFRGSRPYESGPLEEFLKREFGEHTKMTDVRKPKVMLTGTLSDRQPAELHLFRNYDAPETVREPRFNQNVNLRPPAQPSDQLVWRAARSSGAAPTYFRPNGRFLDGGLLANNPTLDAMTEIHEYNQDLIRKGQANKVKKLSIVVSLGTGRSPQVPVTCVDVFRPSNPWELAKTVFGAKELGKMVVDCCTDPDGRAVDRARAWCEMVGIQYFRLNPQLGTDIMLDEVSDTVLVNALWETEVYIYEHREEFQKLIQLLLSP
Method: All synthesized thiazolyl ketones were tested for their in vitro inhibitory activity on recombinant human cPLA2α and selectivity over human calcium-independent GVIA iPLA2 and secreted GV sPLA2 using our previously described group-specific radioactivity-based mixed micelle assays. The inhibition results are presented either as per cent inhibition or as XI(50) values in Table 1. […] The XI(50) is defined as the mole fraction of the inhibitor in the total substrate interface required to inhibit the enzyme activity by 50%. For comparison purposes, previously published data for the inhibitor GK470[19] are included. […] Inhibitors were initially screened at 0.091 mol fraction (5 μL of 5 mM inhibitor in DMSO) in substrate (495 μL) in technical triplicates. […] The XI(50) value and stdev values reported are for the entire curve. This analysis was performed in GraphPad Prism v6.

[2] = stability in human plasma (LC-MS/MS); format: in vitro ADME; settings: for Stability in human plasma 4 h: % of the compound remaining after 4 h; for plasma stability 4h (%) / plasma stability 20h (%) / plasma stability 25h (%): individual sample, human plasma
Method: The stability of the analogs in human plasma was studied over approximately 24 h by LC-MS/MS and the results at 4 h and the final timepoint (20–25 h) are included in Table 1.
The metabolic stability of the compounds was determined through in vitro stability assays in human plasma. Solutions of compounds in DMSO (20 mM) were diluted to 5 μg/mL in 50% methanol for infusion into the MS/MS system and spiking of calibration standards and control samples. For the MS detection, positive ionization in ESI mode was used. Good sensitivity, retention and peak shaped were achieved using a gradient with 5 mM ammonium carbamate in water and ammonium carbamate in 90% acetonitrile on a reversed phase column (ACE3AQ). Calibration standards were spiked in a calibration range of 0.5–100 ng/ml. Control samples were spiked at, low, medium, and high concentration levels. The spiked plasma samples were prepared by protein precipitation using acetonitrile containing appropriate internal standard (IS). […] Samples were prepared for analysis by taking 50 μL of plasma sample and adding 100 μL of IS working solution in acetonitrile followed by vortexing at 2500 rpm (Multi-tube vortexer DVX-2500, Henry Troemner LLC, USA) for 2 min. The samples were centrifuged at 5300 rpm (Heraeus Megafuge 1.0 Heraeus, Germany) for 3 min and the supernatant transferred to the autosampler. Recovery was determined by comparing the prepared matrix samples (protein precipitation) with a direct sample (analytes spikes in 67% acetonitrile = injection solution) such that the recovery of the sample preparation and the matrix effects were determined together. Two or three samples were each measured in technical triplicates to give the final % recovery.

SW982 synoviocytes = assay: cellular arachidonic acid (AA) release assay, IL-1β stimulated; format: cell-based, human; settings: for inhibition at 5 µM: SW982, 5 µM; for EC50 / IC50: SW982; for IC50: concentration in µM, read-out: logEC50 best-fit value, AA release (converted)
Description: To test the inhibitory activity of the compounds in cells, we measured their effect on the release of AA from synoviocytes stimulated with IL-1β (Table 2). […] Combined with favorable selectivity and stability it was thus chosen for further evaluation. We looked specifically at how it modulated eicosanoid levels in response to stimulation both in whole blood and in isolated peripheral blood mononuclear cells (PBMCs) and checked for off-target effects on AA metabolism in whole blood by also measuring the effect of GK420 on eicosanoid release in the presence of exogenous free AA.
The human synovial sarcoma cell line SW982 (ATCC, London, UK) was used to measure AA release. The cells were maintained in Dulbecco’s Modified Eagle Medium (DMEM) supplemented with 10% FBS, 0.1 mg/mL gentamicin, and 0.3 mg/mL L-glutamine at 37 °C with 10% CO2, and experiments were performed at 3 days post-confluence. To measure AA release, the cells were labeled overnight with ^3H-AA (0.4 μCi/mL) in serum-free DMEM and then washed twice with PBS containing fBSA (2 mg/mL) to remove unincorporated radioactivity. The inhibitors, or DMSO vehicle control, were subsequently added to the cells for 1 hour prior to stimulation with 10 ng/mL IL-1β for 4 h. Supernatants were collected and centrifuged at 300 × g for 5 min to clear them of detached cells and adherent cells were dissolved in 1 N NaOH. The ^3H-AA was assessed by liquid scintillation counting (LS 6500 Multi-Purpose Scintillation Counter, Beckman Coulter, Inc., USA) and the results are given as the inhibition of released ^3H-AA in the supernatants relative to total ^3H-AA incorporated into the cells, as described. EC50 values were calculated by fitting the % inhibition data to a three-parameter dose-response curve in GraphPad prism v10.4.0. Experiments were performed in technical triplicates and repeated at least three times.

[3] = 0.091 mole fraction, read-out: GVIA iPLA2 % Inhib
[4] = average of triplicates, read-out: iPLA2 % inhibition at 0.091 mole fraction, average
[5] = individual technical replicate, read-out: iPLA2 % inhibition at 0.091 mole fraction
[6] = % of the compound remaining after 20 h
[7] = 0.2 µM, individual biological replicate
[8] = 1 µM, individual biological replicate
[9] = 5 µM, individual biological replicate
[10] = Homo sapiens, individual biological replicate
[11] = Homo sapiens, SW982, 4 h, 1 µM inhibitor, IL-1β 4 h, mean ± stdev, read-out: AA release % Inhib
[12] = Homo sapiens, IL-1β 4 h, 0.2, 1 or 5 µM inhibitor, read-out: AA release EC50 µM (95% CI)
[13] = Homo sapiens, [Agonist] vs. Response (three parameters)
[14] = Homo sapiens, [Agonist] vs. Response (three parameters), read-out: EC50 best-fit value, AA release
[15] = Homo sapiens, SW982, 1 µM, individual biological replicate, read-out: % inhibition of stimulated AA release

| SMILES | inhibition at 0.091 mole fraction [1, 3] [%] | inhibition at 0.091 mole fraction [1, 4] [%] | inhibition at 0.091 mole fraction [1, 5] [%] | Stability in human plasma 4 h [2] [%] | Stability in human plasma 20+ h [2, 6] [%] | plasma stability 4h (%) [2] | plasma stability 20h (%) [2] | % inhibition of stimulated AA release (SW982 synoviocytes; [7]) | % inhibition of stimulated AA release (SW982 synoviocytes; [8]) | % inhibition of stimulated AA release (SW982 synoviocytes; [9]) | inhibition at 5 µM (SW982 synoviocytes; [10]) [%] | inhibition at 1 µM (SW982 synoviocytes; [11]) [%] | EC50 (SW982 synoviocytes; [12]) [µM] | IC50 (SW982 synoviocytes; [13]) [µM] | EC50 (SW982 synoviocytes; [14]) [µM] | inhibition at 0.2 µM (SW982 synoviocytes; Homo sapiens, SW982, 0.2 µM, individual biological replicate) [%] | inhibition at 1 µM (SW982 synoviocytes; [15]) [%] | Stability in human plasma 20+ h ([2]; % of the compound remaining after 25 h (¤)) | plasma stability 25h (%) [2] |
| --- | --- | --- | --- | --- | --- | --- | --- | --- | --- | --- | --- | --- | --- | --- | --- | --- | --- | --- | --- |
| CCCCCCCOc1ccc(OCC(=O)c2nc(C(=O)OC)cs2)cc1 [GK420] | 0 | 0 | 0 | 63.3 | 18.05 | 64.7% and 61.9% | 19.1% and 17% | 55.97% and 44.95% and 68.85% and 89.01% | 102.49% and 78.04% and 96.65% and 110.97% | 103.28% and 116.15% and 112.68% | 119 | 97 ± 14 | 0.09 | 0.0942 | 0.0943 | – | – | – | – |
| CCCCCCSc1ccc(OCC(=O)c2nc(C(=O)OC)cs2)cc1 [GK427] | 7.5 | 7.5 | – | 61.3 | 8.05 | 59% and 63.5% | 0% and 16.1% | 24.46% and 29.82% and 29.25% | 49.86% and 62.69% | 90.15% and 92.25% and 90.43% | 84 | 56 ± 5 | 0.67 | 0.671 | 0.671 | 26.4 | 55.8 | – | – |
| CCCCCCOc1ccc(SCC(=O)c2nc(C(=O)OC)cs2)cc1 [GK419] | 0 | 0 | 0 | 82 | 52.7 | 82.6% and 81.4% | 53.1% and 52.3% | 23.74% and 36.06% and 29.89% and 8.79% | 51.4% and 93.19% and 85.38% and 54.33% | 98.65% and 99.61% and 98.35% and 63.6% | – | 71 ± 21 | 0.5 | 0.495 | 0.495 | – | – | – | – |
| CCCCCCCCc1ccc(OC(C)C(=O)c2nc(C(=O)OC)cs2)cc1 (centres unmarked) [GK402] | 61 | 60.8 | 59.9 | 79.7 | – | 79.3% and 79.5% and 80.3% | – | 6.56% and 7.69% and 18.19% | 17.63% and 31.62% | 31.01% and 44.57% | 36.7 | 23 ± 8 | 6.7 | 6.7 | 6.7 | – | 18.5 | 47.3¤ % | 47% and 46% and 48.8% |
| COC(=O)c1csc(C(=O)COc2ccc(Oc3ccccc3)cc2)n1 [GK403] | 34 | 34.3 | 33.6 | 21.5 | – | 32.3% and 10.6% | – | 11.19% and -0.79% and 22.56% and 22.92% | 71.06% and 44.35% and 48.83% and 61.77% | 83.19% and 96.79% and 91.92% | 101 | 57 ± 12 | 0.79 | 0.793 | 0.793 | – | – | – | – |
| CCCCCCCCc1ccc(OCC(=O)c2nc(C(=O)OC)cs2)cc1 [GK470] | – | – | – | 60.6 | – | 58.2% and 63% and 60.5% | – | 11.2% and 24.55% and 57.46% and 50.18% | 71.51% and 64.93% and 67.46% | 105% and 107.21% and 94.17% | 110 | 67 ± 4 | 0.38 | 0.385 | 0.385 | – | 62.7 | – | 10.5% and 10.6% |
